# In patent US20110268757A1, “USE OF PHENOL-SOLUBLE MODULINS FOR VACCINE DEVELOPMENT” (INSTITUT PASTEUR, priority 2008, published 2011):
# Key:
# [1] = test system: IFNγ producing cells specific for peptide p1073 from hepatitis C NS3 protein; assay: ELISPOT of IFNγ producing cells specific for peptide 1073 after immunization; assay type: in vivo; conditions: 5 nmoles peptide with poly I:C, seven days after immunization
# Method: For the analysis of IFNγ-producing cells specific for […] and induced in vivo by the immunizations, ELISPOT experiments were carried out using a BD-pharmingen kit (San Diego, Calif.) and according to the instructions of the manufacturer. Briefly, the plates (Multiscreen HTS, Millipore, Bedford, Mass.) incubated overnight with the anti-IFNγ antibody were blocked for 2 hours with HL-1 medium (Biowhittaker, Verviers, Belgium) containing 10% horse serum. Thus, 5×10^5 splenocytes were incubated in triplicate in the absence or in the presence of the antigens at 37° C. and 5% CO2. On the following day, the plates were washed with PBS and incubated with biotinylated anti-IFNγ antibody (2 mg/ml). After two hours, the plates were washed and incubated with a 1/100 dilution of streptavidin-peroxidase. One hour later, the wells were washed and developed using the AEC substrate set (BD-Pharmingen). The colorimetric reaction was stopped with distilled water and the number of spots was quantified using an ELISPOT automatic reader (CTL, Aalen, Germany).
# (§1) Thus the peptides αMod-1073, γMod-1073 and δMod-1073 as well as the peptide p1073 alone were synthesized. HELD transgenic mice (which express the human HLA_A2 molecule) were immunized with 5 nmoles of the corresponding peptide in the presence of poly I:C. Seven days after immunization, ELISPOT and in vivo killing assays were carried out as described above using target cells pulsed with peptide 1073.
# [2] = test system: target cells pulsed with peptide 1073; assay: In vivo killing assay using target cells pulsed with peptide 1073; conditions: 5 nmoles peptide with poly I:C, seven days after immunization
# Method: C57BL6 mice were intravenously immunized intravenously with 5 nmoles of the indicated peptides in combination with 50 μg of the TLR3 ligand poly I:C. In some cases, the peptides were immunized in the presence of TLR2 (peptidoglycan), TLR4 (LPS or the EDA protein) or TLR9 (CpG) ligand. […] On the following day, the mice were sacrificed and the splenocytes were analyzed by flow cytometry to quantify the number of cells with high CFSE labeling with respect to the cells with low CFSE labeling. Thus, the percentage of cell lysis of the cells incubated with the cytotoxic […] peptide can be calculated in an experiment called in vivo killing.
# as §1
# [3] = test system: dendritic cells derived from bone marrow; assay: Upregulation of maturation markers on dendritic cells (flow cytometry); assay type: cell-based, mouse; conditions: 50 μM peptide, 48 hours
# Method: (§2) Dendritic cells were grown from bone marrow cells. […] The remaining cells grew in 12 culture plates in complete medium with 10^6 cells/ml supplemented with 20 ng/ml of mGM-CSF and 20 ng/ml of mIL-4 (both from Peprotech; London, GB). Every 2 days the medium was substituted with fresh medium containing cytokines. On day 7, non-adherent dendritic cells were collected, and cultured in the presence or absence of 50 μM of modulin peptides or of 1 μg/ml of LPS (Sigma) and incubated for 48 hours at 37° C. and 5% CO2. After this period, the cells were isolated and incubated with anti IAb, CD54 and CD86 antibodies (Pharmingen). In parallel experiments, the dendritic cells were incubated with the indicated stimuli for 16 hours, after which the expression of the messenger RNA for the p40 molecules of IL-12 and of TNF-α was analyzed.
# Expression of DC maturation markers was measured by flow cytometry. DC were harvested and pre-incubated with a rat anti-CD16/32 mAb (2.4G2 clone, BD Pharmingen) for 15 min, to block non-specific binding of primary antibodies. After this initial incubation, cells were stained with the primary antibodies at 4° C. for 15 min, washed and acquired on FACSscan cytometer (BD Biosciences, San Diego, Calif.) and analyzed using Cell Quest software (BD Biosciences).
# [4] = test system: dendritic cells derived from bone marrow; assay: Expression of messenger RNA for IL-12 p40 and TNFα in dendritic cells (real-time PCR); assay type: cell-based, mouse; conditions: 50 μM peptide, 16 hours, versus culture medium alone, p<0.05
# Method: as §2
# The total RNA of dendritic cells incubated for 16 hours with the different stimuli indicated above were extracted using the Nucleic Acid Purification Lysis Solution (Applied BioSystems, Foster City, Calif.) and the ABI PRISM 6100 Nucleic Acid PrepStation (Applied BioSystems) semiautomatic system.
# [5] = test system: TC-1 tumor cells (expressing the E7 protein of the HPV-16 virus); assay: Treatment of mice carrying TC1 subcutaneous tumors; assay type: in vivo, C57B/6 mice; conditions: TC1 tumors of 8 mm diameter, i.v. peptide plus 50 μg/ml poly I:C, second immunization seven days later
# Method: The C57B/6 mice were subcutaneously injected with 5×10^5 TC-1 tumor cells (expressing the E7 protein of the HPV-16 virus). After 25 days, when the tumor reaches a diameter of 8 mm, the mice are intravenously treated with PBS (B), with peptide E7(49-57) plus 50 μg/ml poly I:C(C), or with peptide αMod-E7(49-57) plus 50 μg/ml poly I:C (D). Seven days later, the mice received a second immunization of the same immunogens. The tumor size, presented as the average of two perpendicular diameters, was measured at regular intervals using a gauge. The number of tumor-free mice relative to the total number of animals per group is included for each treatment.
# mouse splenocytes = assay: Binding of CFSE labeled peptides to glutaraldehyde-fixed splenocytes (flow cytometry); assay type: cell-based; conditions: unlabeled competitor 100 μM, 20 μM CFSE γMod-SIINFEKL
# Method: Binding assays were carried out using either splenocytes (FIG. 1, panels A B, D, E and G) or bone marrow derived dendritic cells (FIG. 1, panels C and F). The cells were fixed by means of an incubation with a 0.4% glutaraldehyde solution for 15 minutes at 4° C. 5×10^5 fixed cells were incubated in the presence of 20 μM CFSE αMod-[sequence] (FIG. 1, panels A, B and C), or CFSE γMod-[sequence] (FIG. 1, panels D, E, F and G). In some assays, and to study the specificity of CFSE labeled peptide binding, these incubations were carried out in the presence or absence of the unlabeled peptides αMod-[sequence], γMod-[sequence] or [sequence] (100 μM) (panels B and E). Also, we carried out binding assays using the CFSE labeled peptide CFSE-OVA (235-264) as a negative control (FIG. 1, panels A, C, D and F). After 30 minutes of incubation at 4° C., two washings with PBS were carried out and the performed labeling was analyzed by flow cytometry. In some experiments (FIG. 1G), double staining was carried out using anti-CD4, CD8, CD11c, CD19, F480 or GR1(CD117) antibodies labeled with phycoerythrin (Pharmingen) together with the CFSE-γMod-[sequence] peptide. In these cases, the labeling with the specific antibodies was carried out before fixing the cells with glutaraldehyde.
# [6] = test system: T cells from OT-1 transgenic mice; assay: Antigen presentation assay: proliferation of OT-1 T cells (tritiated thymidine); assay type: cell-based, mouse; conditions: dendritic cells incubated with 10 μM peptide
# Method: Dendritic cells derived from bone marrow were cultured in the presence or absence of 10 μM of the indicated peptides (FIG. 3). Forty hours later, the cells were washed and distributed in 96-well plates at different concentrations and incubated in the presence of 10^5 T cells/well obtained from OT-1 transgenic mice (which express a specific T receptor for the SIINFEKL peptide of ovalbumin. Seventy-two hours later, tritiated thymidine was added to the cultures and six hours later the cells were harvested and the incorporated thymidine was analyzed in a scintillation counter (Topcount Packard).
# [7] = test system: splenocytes pulsed with the SIINFEKL peptide; assay: In vivo killing assay against SIINFEKL-pulsed splenocytes after immunization; parameters: species or system C57BL/6 mice; conditions: 5 nmoles peptide plus 50 μg poly I:C
# Method: C57BL6 mice were intravenously immunized intravenously with 5 nmoles of the indicated peptides in combination with 50 μg of the TLR3 ligand poly I:C. In some cases, the peptides were immunized in the presence of TLR2 (peptidoglycan), TLR4 (LPS or the EDA protein) or TLR9 (CpG) ligand. […] On the following day, the mice were sacrificed and the splenocytes were analyzed by flow cytometry to quantify the number of cells with high CFSE labeling with respect to the cells with low CFSE labeling. Thus, the percentage of cell lysis of the cells incubated with the cytotoxic SIINFEKL peptide can be calculated in an experiment called in vivo killing.
# C57BL6 wild type mice and knockout mice were immunized for TLR2 with the aim of studying the dependence on TLR2 in the immunostimulating capacity of modulin-derived peptides. Thus, different mice were injected with 5 nmoles of the indicated peptides or with PBS in combination with 50 μg of the TLR3 ligand poly I:C. […] On the following day, the mice were sacrificed and the splenocytes were analyzed by flow cytometry to quantify the number of cells with high CFSE labeling with respect to the cells with low CFSE labeling in the same manner as in Example 3.
# [8] = test system: IFNγ-producing cells in response to the SIINFEKL peptide; assay: ELISPOT of IFNγ-producing cells specific for SIINFEKL after immunization; assay type: in vivo, C57BL/6 mice; conditions: 5 nmoles peptide plus 50 μg poly I:C
# Method: C57BL6 mice were intravenously immunized intravenously with 5 nmoles of the indicated peptides in combination with 50 μg of the TLR3 ligand poly I:C. In some cases, the peptides were immunized in the presence of TLR2 (peptidoglycan), TLR4 (LPS or the EDA protein) or TLR9 (CpG) ligand. Seven days after the immunization, the mice were intravenously injected with a mixture of 5×10^6 splenocytes, half of which had been previously labeled with a dose of 0.25 μM C and the other half with 2.5 uM CFSE and the SIINFEKL peptide (10 μg/ml). On the following day, the mice were sacrificed and the splenocytes were analyzed by flow cytometry to quantify the number of cells with high CFSE labeling with respect to the cells with low CFSE labeling. Thus, the percentage of cell lysis of the cells incubated with the cytotoxic SIINFEKL peptide can be calculated in an experiment called in vivo killing.
# For the analysis of IFNγ-producing cells specific for SIINFEKL and induced in vivo by the immunizations, ELISPOT experiments were carried out using a BD-pharmingen kit (San Diego, Calif.) and according to the instructions of the manufacturer. Briefly, the plates (Multiscreen HTS, Millipore, Bedford, Mass.) incubated overnight with the anti-IFNγ antibody were blocked for 2 hours with HL-1 medium (Biowhittaker, Verviers, Belgium) containing 10% horse serum. Thus, 5×10^5 splenocytes were incubated in triplicate in the absence or in the presence of the antigens at 37° C. and 5% CO2. On the following day, the plates were washed with PBS and incubated with biotinylated anti-IFNγ antibody (2 mg/ml). After two hours, the plates were washed and incubated with a 1/100 dilution of streptavidin-peroxidase. One hour later, the wells were washed and developed using the AEC substrate set (BD-Pharmingen). The colorimetric reaction was stopped with distilled water and the number of spots was quantified using an ELISPOT automatic reader (CTL, Aalen, Germany).
# For the analysis of IFNγ-producing cells in the presence of SIINFEKL and induced in vivo by the immunizations, ELISPOT experiments were carried out using a BD-pharmingen kit (San Diego, Calif.) and according to the instructions of the manufacturer, in the same manner as in Example 3.
# EG7OVA tumor cells [9] = assay: Protection against the challenge with EG7OVA tumor cells after immunization; assay type: in vivo, C57BL/6 mice; conditions: 5 nmoles peptide with poly I:C
# Method: Protection against the challenge with EG7 tumor cells expressing the OVA protein C57BL6 mice were subcutaneously immunized with 5 nmol of the indicated peptides in combination with poly I:C. […] In some experiments, mice were first challenged s.c with 5×10^5 cells and when tumors reached 5 mm in diameter they were treated with the indicated peptide. The tumor growth was controlled with a gage. Mice were sacrificed when the tumor reached a volume greater than 4 cm^3. Kaplan-Meier plot of mice survival for each immunogen is depicted.
# EG7OVA tumor cells [10] = assay: Treatment of mice bearing established EG7OVA tumors; assay type: in vivo, C57BL/6 mice; conditions: EG7OVA tumors of 5 mm diameter at treatment, peptide plus poly I:C, p<0.05
# Method: Protection against the challenge with EG7 tumor cells expressing the OVA protein C57BL6 mice were subcutaneously immunized with 5 nmol of the indicated peptides in combination with poly I:C. Seven days after the immunization, the mice were subcutaneously injected with 5×10^5 or with 5×10^7 EG7OVA cells. In some experiments, mice were first challenged s.c with 5×10^5 cells and when tumors reached 5 mm in diameter they were treated with the indicated peptide. The tumor growth was controlled with a gage. Mice were sacrificed when the tumor reached a volume greater than 4 cm^3. Kaplan-Meier plot of mice survival for each immunogen is depicted.
substance,measurement,setting,value
"CVNGVCWTV [Peptide 1073, reference compound]",IFNγ producing cells specific for peptide 1073 (ELISPOT),[1],not found
same,CTL activity against peptide 1073 (in vivo killing),[2],not found
MAADIISTIGDLVKWIIDTVNKFKK [γMod],expression of CD54 on dendritic cells,[3],promotes the expression
same,expression of the IAb molecule on dendritic cells,[3],promotes the expression
same,expression of messenger RNA for IL-12 (p40),[4],capable of increasing the expression
same,expression of messenger RNA for TNF-alpha,[4],capable of increasing the expression
MAADIISTIGDLVKWIIDTVNKFKKCVNGVCWTV [γMod-1073],IFNγ producing cells specific for peptide 1073 (ELISPOT),[1],high numbers of IFNγ producing cells
same,CTL activity against peptide 1073 (in vivo killing),[2],high levels of CTL activity
MADVIAKIVEIVKGLIDQFTQK (Staphylococcus epidermidis RP62A) [αMod],expression of CD54 on dendritic cells,[3],activates the expression
same,expression of CD86 on dendritic cells,[3],activates the expression
same,expression of the IAb molecule on dendritic cells,[3],activates the expression
same,expression of messenger RNA for IL-12 (p40),[4],capable of increasing the expression
same,expression of messenger RNA for TNF-alpha,[4],capable of increasing the expression
MADVIAKIVEIVKGLIDQFTQKCVNGVCWTV [αMod-1073],IFNγ producing cells specific for peptide 1073 (ELISPOT),[1],strong T cell immune responses
same,CTL activity against peptide 1073 (in vivo killing),[2],strong T cell immune responses
MSIVSTIIEVVKTIVDIVKKFKKCVNGVCWTV [δMod-1073],IFNγ producing cells specific for peptide 1073 (ELISPOT),[1],high numbers of IFNγ producing cells
same,CTL activity against peptide 1073 (in vivo killing),[2],high levels of CTL activity
"RAHYNIVTF [E7(49-57), reference compound]",number of tumor-free (cured) mice relative to the total number of mice,[5],4 of 11
SIINFEKL [reference compound],reduction of the bright fluorescence of CFSE γMod-SIINFEKL on splenocytes by unlabeled peptide,mouse splenocytes,did not affect this signal
same,proliferation of OT-1 T lymphocytes stimulated by peptide-incubated dendritic cells,[6],proliferate better
same,cells with lysis capacity against SIINFEKL (in vivo killing),[7]; 60 days after immunization,not capable of inducing
same,specific cytotoxic activity against SIINFEKL (in vivo killing),[7]; seven days after immunization,not capable of activating these responses
same,IFNγ-producing cells in response to SIINFEKL (ELISPOT),[8]; 60 days after immunization,not capable of inducing
same,IFNγ-producing cells in response to SIINFEKL (ELISPOT),[8]; seven days after immunization,not capable of activating these responses
same,protection from tumor growth after EG7OVA challenge,EG7OVA tumor cells [9]; 5×10^5 EG7OVA cells s.c. seven days after immunization (FIG. 5A),developed tumors
same,protection from tumor growth after EG7OVA challenge,EG7OVA tumor cells [9]; 7×10^5 EG7OVA cells s.c. seven days after immunization (FIG. 5B),developed tumors
same,mice rejecting the established tumor,EG7OVA tumor cells [10],0%
polyinosinic-polycytidylic acid [poly I:C],mice rejecting the established tumor,EG7OVA tumor cells [10],0%
